Measurements: paper PMC10376691, “Inhibition of Acetylcholinesterase and Amyloid-β Aggregation by Piceatannol and Analogs: Assessing In Vitro and In Vivo Impact on a Murine Model of Scopolamine-Induced Memory Impairment” (Antioxidants, 2023)

Columns and labels:
[1] = DPPH radical scavenging activity
Procedure: DPPH radical scavenging activity was assayed following a previous report, with some modifications. […] DMSO was used instead of a sample solution in the blank group. […] The scavenging activity of the DPPH radical (%) was calculated with the following equation: (△A515blank − △A515sample) ÷ △A515blank × 100%. The IC50 of the DPPH radical scavenging activity of PIC and its analogs or that of Trolox was calculated from each linear equation by three test concentrations and their radical scavenging activities.

[2] = molecular target: T1, Aβ peptide (1–42) (Homo sapiens, UniProt P05067); assay: biochemical
T1 construct: The Aβ peptide (1–42) was synthesized and purchased from Kelowna International Scientific Inc; purchased Kelowna International Scientific Inc. (New Taipei, Taiwan); host or cells: chemical synthesis
T1 sequence (P05067 672-713): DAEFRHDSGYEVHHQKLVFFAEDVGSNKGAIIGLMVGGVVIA
Procedure: To prepare the 10 μM Aβ peptide working solution, commercial Aβ peptide was first weighted and dissolved in HFIP to 1 mM. Next, the solvent was evaporated in a hood and then re-dissolved using 100 μL of 60 mM NaOH. It was then diluted to 10 μM working solutions with 50 mM phosphate buffer (pH 7.4, containing 150 mM sodium chloride and 1 mM EDTA), following previous reports. […] DMSO instead of the sample solution was used as the control. The 50 mM phosphate buffer was used instead of the Aβ working solution as the sample blank. […] The IC50 of the inhibition against the Aβ aggregation of PIC and its analogs was calculated from each linear equation using three test concentrations and their inhibition capacities.

[3] = system: SH-SY5Y cells; assay: Neuroprotection against Aβ peptide (25–35)-induced cell deaths (MTT); type: cell-based, human; conditions: pre-treatment 1, 2 and 10 μM for 24 h, then 40 μg/mL Aβ (25–35) 24 h; vs control p < 0.05
Procedure: (§1) The human SH-SY5Y neuroblastoma cell lines (CRL-2266, Lot No. 58979771) were purchased from American Type Culture Collection (Manassas, VA, USA) and used as models to investigate PIC and its analogs for neuroprotective activities against Aβ-induced cell deaths and the stimulation of neurite outgrowths. The SH-SY5Y cells were grown in DMEM/F-12 medium supplemented with 10% FBS at 37 °C under a humidified atmosphere and 5% CO2 [41]. […]. The SH-SY5Y cells (10,000 cells/well) were seeded and cultured in a DMEM/F-12 medium containing 10% FBS for 24 h at 37 °C under a humidified atmosphere and 5% CO2. […] The medium was then removed, and 40 μg/mL Aβ peptide (25–35) (dissolved in PBS) or an equal aliquot of PBS was added to the medium for another 24 h culture. The MTT was used to evaluate cell viability, and the absorbance at 570 nm was determined. The DMSO used instead of the sample solution was blank (recognized as 100%), and each treatment was expressed as relative cell viability (%). To study the stimulation of neurite outgrowth, the SH-SY5Y cells (5000 cells/well) were seeded on a 96-well plate pre-coated with poly-L-lysine and then cultured in the DMEM/F-12 medium containing 10% FBS overnight at 37 °C under a humidified atmosphere and 5% CO2. After being removed from the culture medium, each PIC, GNT, RHA, and isoRHA (at a final concentration of 10 μM in the 0.1%DMSO) or 0.1% DMSO (the control) was added to the DMEM/F-12 medium containing 10% FBS and refreshed every three days. On day 3 and day 6, each of the culture plates was photographed using an inverted microscope (ECLIPSE TS100, Nikon Instruments Inc., Tokyo, Japan). The culture medium was removed and washed with PBS, and the cultured cells in each well were fixed with 4% paraformaldehyde. To measure cell viability and quantify the neurite outgrowths of the treated SH-SY5Y in a 96-well plate, the neurite outgrowth staining kit (a two-color fluorescence assay kit) was used, following a previous report or the protocol in the manufacturer’s manual (publication number: MAN0007224), which included a cell membrane-stained fluorescent dye (orange-red fluorescence), a cell viability indicator (green fluorescence), and a reagent for background masking. The fluorescence ratios of Ex555nm/Em565nm and Ex495nm/Em515nm were determined for the neurite outgrowths and the cell viabilities, respectively. The value for the control was recognized as 100%, and each treatment was expressed relative to the control.

[4] = system: SH-SY5Y cells; assay: Cytotoxicity on SH-SY5Y cells (MTT); type: cell-based; conditions: 1, 2, 5 and 10 μM, MTT (Figure S1)
Procedure: as §1, with “To study the stimulation of neurite outgrowth, the SH-SY5Y cells (5000 cells/well) were seeded on a 96-well plate pre-coated with poly-L-lysine and then cultured in the DMEM/F-12 medium containing 10% FBS overnight at 37 °C under a humidified atmosphere and 5% CO2. After being removed from the culture medium, each PIC, GNT, RHA, and isoRHA (at a final concentration of 10 μM in the 0.1%DMSO) or 0.1% DMSO (the control) was added to the DMEM/F-12 medium containing 10% FBS and refreshed every three days. On day 3 and day 6, each of the culture plates was photographed using an inverted microscope (ECLIPSE TS100, Nikon Instruments Inc., Tokyo, Japan). The culture medium was removed and washed with PBS, and the cultured cells in each well were fixed with 4% paraformaldehyde.” left out, “The value for the control was recognized as 100%, and each treatment was expressed relative to the control.” left out
The following supporting information can be downloaded at: https://www.mdpi.com/article/10.3390/antiox12071362/s1. […] The MTT was used to evaluate cell viability, and the absorbance at 570 nm was determined. The DMSO used instead of the sample solution was blank (recognized as 100%), and each treatment was expressed as relative cell viability (%). […]

[5] = system: mouse brain microvascular endothelial cell models; conditions: lipopolysaccharide-induced inflammation and oxidative stress; cited from earlier work
[6] = system: LPS-treated Swiss albino mice; conditions: 6-day treatment 2.5 mg/kg/day, LPS 0.8 mg/kg i.p.; cited from earlier work
[7] = system: db/db mice; conditions: oral 50 mg/kg for 2–3 weeks; cited from earlier work
[8] = oral administration to rats; cited from earlier work

## Oc1cc(O)cc(C=Cc2ccc(O)c(O)c2)c1 [PIC, 3,5,3′,4′-tetrahydroxystilbene]
[1]; 120 μM DPPH in methanol, 37 °C, 20 min
  IC50: 40.2 µM
[1]; ratio of IC50, vs RSV
  DPPH scavenging capacity, fold higher than that of RSV: 2.5 fold
[1]; ratio of IC50, vs Trolox
  DPPH scavenging capacity, fold higher than that of Trolox: 2.07 fold
[2]
  IC50: 0.48 µM
[2]; vs RSV
  anti-Aβ aggregation capacity, fold higher than that of RSV: 2.94 fold
[3]
  neuroprotection: cell viability against Aβ peptide (25–35)-induced cell deaths: elevated cell viabilities
[4]
  cytotoxicity on SH-SY5Y cells: insignificant cytotoxicity
[5]
  BBB integrity: protect BBB integrity
[6]
  Aβ levels in brain extracts: reduce Aβ levels in brain extracts
  learning and memory functions: ameliorate
[7]
  blood glucose levels: reduce blood glucose levels
[8]
  bioavailability: 50.7%
  half-life: 4.23 h
